# Assay results: BindingDB's records for doi:10.1021/cb8001039 (National Cancer Institute-Bethesda, 2008)
# Legend:
# Assay in all cases: FRET-Based RNase H Assay
# Conditions in all cases: pH 8; 20 °C
# Ribonuclease HI = biological target: T1, Ribonuclease HI (Escherichia coli (strain K12), UniProt P0A7Y4)
# T1 sequence (P0A7Y4 whole entry): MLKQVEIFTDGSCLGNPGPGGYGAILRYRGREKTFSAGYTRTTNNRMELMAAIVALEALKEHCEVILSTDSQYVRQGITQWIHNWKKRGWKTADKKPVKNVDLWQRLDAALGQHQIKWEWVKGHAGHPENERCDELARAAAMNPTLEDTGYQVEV
# Experimental: (§1) RNaseH assays were performed using an 18-nucleotide 3-fluorescein-labeled RNA annealed to a complementary 18-nucleotide 5-dabcyl conjugated DNA. The increase in fluorescence as a result of RNase H hydrolysis was monitored with a Spectramax Gemini EM fluorescence spectrometer. Data were analyzed using the instrument manufacturer SoftMax pro software. To determine IC50 values, the slope of the curve representing the time dependent increase in fluorescence was determined at 10 min, when initial rate conditions are met and substrate depletion is not significant. The slope values were plotted against the logarithm of the inhibitor concentrations, and IC50 values were determined using SigmaPlot software.
# Ribonuclease H1 = biological target: T2, Ribonuclease H1 (Homo sapiens, UniProt O60930)
# T2 sequence (O60930 whole entry): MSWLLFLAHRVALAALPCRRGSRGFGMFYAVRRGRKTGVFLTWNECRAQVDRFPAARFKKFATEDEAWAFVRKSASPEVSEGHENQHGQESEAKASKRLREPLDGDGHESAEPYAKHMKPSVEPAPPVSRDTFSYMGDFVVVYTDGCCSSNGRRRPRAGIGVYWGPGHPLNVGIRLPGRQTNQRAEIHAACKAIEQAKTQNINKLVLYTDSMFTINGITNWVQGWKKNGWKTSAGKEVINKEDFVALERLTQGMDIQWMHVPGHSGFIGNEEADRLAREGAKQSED
# Experimental: as §1
# [1] = biological target: T3, Gag-Pol polyprotein [613-1167,R896S,E946D,S1117V]/[618-1043,R896S,E946D] (Human immunodeficiency virus 2, UniProt P04584, E946D/R896S/S1117V)
# T3 construct: 613-1167; 618-1043
# T3 sequence (P04584 613-1167, looked up, stated change not applied): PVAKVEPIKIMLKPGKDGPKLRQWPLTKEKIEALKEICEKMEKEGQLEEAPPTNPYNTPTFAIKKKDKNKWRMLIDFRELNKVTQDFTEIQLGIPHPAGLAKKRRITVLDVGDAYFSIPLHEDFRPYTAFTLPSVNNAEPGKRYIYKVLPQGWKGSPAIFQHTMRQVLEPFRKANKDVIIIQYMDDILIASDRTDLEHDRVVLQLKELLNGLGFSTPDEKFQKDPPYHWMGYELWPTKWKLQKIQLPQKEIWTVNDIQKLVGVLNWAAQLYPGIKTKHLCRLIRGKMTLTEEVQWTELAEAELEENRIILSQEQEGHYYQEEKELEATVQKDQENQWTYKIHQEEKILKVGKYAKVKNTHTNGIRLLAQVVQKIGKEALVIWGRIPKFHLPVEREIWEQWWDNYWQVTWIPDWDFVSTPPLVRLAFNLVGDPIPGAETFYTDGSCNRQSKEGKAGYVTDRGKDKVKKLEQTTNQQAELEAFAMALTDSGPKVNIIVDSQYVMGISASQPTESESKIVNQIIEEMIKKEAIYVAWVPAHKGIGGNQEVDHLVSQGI
# T3 sequence (P04584 618-1043, looked up, stated change not applied): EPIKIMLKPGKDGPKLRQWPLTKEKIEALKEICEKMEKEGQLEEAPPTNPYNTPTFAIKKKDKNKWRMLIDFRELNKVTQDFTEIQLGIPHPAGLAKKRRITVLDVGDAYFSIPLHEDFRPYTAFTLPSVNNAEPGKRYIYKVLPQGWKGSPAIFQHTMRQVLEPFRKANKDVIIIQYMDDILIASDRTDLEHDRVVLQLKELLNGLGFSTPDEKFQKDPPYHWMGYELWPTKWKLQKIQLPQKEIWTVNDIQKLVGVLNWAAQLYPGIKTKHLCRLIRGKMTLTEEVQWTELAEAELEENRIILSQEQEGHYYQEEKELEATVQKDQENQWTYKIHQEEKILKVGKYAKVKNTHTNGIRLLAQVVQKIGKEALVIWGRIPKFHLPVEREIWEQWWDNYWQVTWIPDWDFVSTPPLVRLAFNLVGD
# Experimental: as §1
# [2] = biological target: T4, Gag-Pol polyprotein [600-1029,C879S]/[600-1159,C879S] (Human immunodeficiency virus 1, UniProt P03366, C879S)
# T4 construct: 600-1029; 600-1159
# Experimental: as §1
SMILES,IC50 (Ribonuclease HI) [µM],IC50 (Ribonuclease H1) [µM],IC50 [1] [µM],IC50 [2] [µM]
"Cc1sc(NC(=O)c2ccco2)c(C(N)=O)c1C [vinylogous urea, NSC727448]",73,29,5,3.2
NC(=O)c1c(N)sc2c1CCCCC2 [SMR000066289],100,10.6,2.5,2
